Key:
db/db mice = db/db mice model: serum glucose, triglycerides, cholesterol; type: in vivo; details: serum 4 hours after final gavage
Protocol: The test protocol is as follows:
Homozygous male C57BL/Ks-db mice (db/db mice), 11-13 weeks old at the start of the studies, are divided into groups of 9-10 animals. The products are administered orally, once a day for 5 days. A group of mice receives the vehicle alone (methylcellulose solution at 0.5% or 1%). A blood sample is taken from the retro-orbital sinus before treatment and 4 hours after the final gavage. After centrifugation, the serum is collected and the levels of cholesterol, triglycerides and glucose are measured using a multiparameter analyzer with commercial products. The results are expressed as a percentage of variation on the final day relative to the control group.

[1] = test system: cells of murine muscle origin C2C12; test: β-oxidation of 14C-oleate on C2C12 cells differentiated as myotubes; type: cell-based; details: 10 μM, 48 hours incubation
Protocol: A second series of tests was performed with the compounds according to the invention, with the aim of confirming the activity deduced from their affinity for the receptors mentioned previously. This test consists in measuring the β-oxidation on cells of human hepatic origin HuH7 and cells of murine muscle origin C2C12 after differentiation as myotubes. The cells are inoculated in Petri dishes comprising a central well. The products are added to the culture medium and incubated for 48 hours at different concentrations. After incubation for 22 hours, ^14C-radiolabeled oleate (oleate 1-C14) is added to the culture medium. The β-oxidation reaction is stopped two hours later by adding 40% perchloric acid. The CO2 released during the oxidation of the oleate is trapped with KOH solution and then counted. Each test is performed three times. The results are expressed as a percentage of variation relative to the control dishes (dishes without compounds). According to this test, the compounds according to the invention increase the β-oxidation by up to +145% at a concentration of 10 μM on HuH7 cells.

[2] = 10 mg/kg orally once a day for 5 days
[3] = 100 mg/kg orally once a day for 5 days
[4] = 3 mg/kg orally once a day for 5 days

Row | Structure (SMILES) | Cholesterol, percentage of variation relative to the control group (db/db mice; [2]) | Glucose, percentage of variation relative to the control group (db/db mice; [2]) [%] | Triglycerides, percentage of variation relative to the control group (db/db mice; [2]) [%] | also measured
1 | Cc1cc(C)cc(S(=O)(=O)n2c(CCCCC(=O)O)cc3nc(Cl)ccc32)c1 [Ex. 259, 5-Chloro-1-[(3,5-dimethylphenyl)sulfonyl]-1H-pyrrolo[3,2-b]pyridine-2-pentanoic acid] | +32% | −51 | −16 | –
2 | O=C(O)CCCc1cc2nc(Cl)ccc2n1S(=O)(=O)c1ccc(-c2ccncc2)cc1 [Ex. 293, 5-Chloro-1-[[4-(4-pyridyl)phenyl]sulfonyl]-1H-pyrrolo[3,2-b]pyridine-2-butanoic acid] | +16% | −24 | −15 | –
3 | O=C(O)CCc1cc2nc(Cl)ccc2n1S(=O)(=O)c1ccccc1 [Example 2, 5-Chloro-1-(phenylsulfonyl)-1H-pyrrolo[3,2-b]pyridine-2-propanoic acid] | +41% | −36 | −32 | –
4 | O=C(O)CCCc1cc2nc(Cl)ccc2n1S(=O)(=O)c1ccc2ncsc2c1 [Example 4, 1-(6-Benzothiazolylsulfonyl)-5-chloro-1H-pyrrolo[3,2-b]pyridine-2-butanoic acid] | +4% | −57 | −45 | –
5 | O=C(O)CCCc1cc2nc(Cl)ccc2n1S(=O)(=O)c1ccccc1 [Example 10, 5-Chloro-1-(phenylsulfonyl)-1H-pyrrolo[3,2-b]pyridine-2-butanoic acid] | – | – | – | increase of β-oxidation, percentage of variation relative to control dishes [1]: 70%
6 | O=C(O)CCCc1cc2nc(C(F)(F)F)ccc2n1S(=O)(=O)c1ccccc1 [Example 20, 1-(Phenylsulfonyl)-5-(trifluoromethyl)-1H-pyrrolo[3,2-b]pyridine-2-butanoic acid] | +13% | −72 | −65 | –
7 | CC(C)OC(=O)C(C)(C)Oc1ccc(C(=O)c2ccc(Cl)cc2)cc1 [Fenofibrate, fenofibrate, reference compound] | – | – | – | Cholesterol, percentage of variation relative to the control group (db/db mice; [3]): +32%; Glucose, percentage of variation relative to the control group (db/db mice; [3]): −9%; Triglycerides, percentage of variation relative to the control group (db/db mice; [3]): −7%
8 | CN(CCOc1ccc(CC2SC(=O)NC2=O)cc1)c1ccccn1 (stereo not shown) [Rosiglitazone, rosiglitazone, reference compound] | – | – | – | Cholesterol, percentage of variation relative to the control group (db/db mice; [4]): −30%; Glucose, percentage of variation relative to the control group (db/db mice; [4]): −41%; Triglycerides, percentage of variation relative to the control group (db/db mice; [4]): −52%

Source: US7728002B2, “Use of pyrrolopyridine compounds for activating PPAR receptors and treatment of conditions involving such receptors” (Laboratoires Fournier S.A., priority 2005, dated 2010)
